Results reported in patent US9663514B2 (Takeda Pharmaceutical Company Limited, priority 2011, dated 2017).
pIC50: −log10 of the molar value.

target: T1, SYK (Homo sapiens, UniProt P43405); test: SYK inhibition: in vitro assay of SYK-mediated phosphorylation of FAM-labeled substrate (Caliper LC-3000); assay type: biochemical; conditions: SYK kinase domain (residues 356-635); 2.4 nM SYK and 45 μM ATP, 3 μM 5FAM-KKKKEEIYFFFG-NH2, RT 60 min, pH 7.3; pIC50 = −log(IC50), IC50 molar
T1 construct: The SYK kinase domain (residues 356-635) is amplified via PCR; made in house; host or cells: Sf9 insect cells (baculovirus, pFastBac1)
Experimental: The ability of compounds to inhibit SYK activity may be assessed using a variety of methods, including in vitro and in vivo assays. The following in vitro assay measures a test compound's ability to inhibit SYK-mediated phosphorylation of a FAM-labeled SYK-specific substrate (5FAM-KKKKEEIYFFFG-NH2).
SYK protein is prepared from cDNA encoding human spleen tyrosine kinase and is expressed in insect cells using a baculovirus expression vector. The cDNA (IMAGE: 3542895) is purchased from Open Biosystems. The SYK kinase domain (residues 356-635) is amplified via PCR and cloned into plasmid pFastBacl (Invitrogen) at BamHI/XbaI sites. Recombinant plasmid encoding Met-Ala-Lys-SYK(356-635)-HHHHHH is sequenced and transformed into E. coli DH10Bac strain. The recombinant bacmid DNA is isolated and transfected into Sf9 insect cells. Recombinant virus is harvested 72 h after transfection. High titer viral stock is prepared by infecting Sf9 cells at a multiplicity of infection (MOI) of approximately 0.01. A suspension of Sf9 cells (10 L) is infected with recombinant virus (MOI=5) and is incubated in a Wave Bioreactor (GE-Healthcare) for 48 h. The cells are harvested and stored at −80° C.
To purify the expressed protein, the frozen Sf9 cells (10 L) are broken into small (<1 cm) particles and suspended in a lysis buffer (300 mL) containing 20 mM Tris (pH 7.6), 0.25 mM TCEP, 100 mM NaCl, 5% glycerol and a protease inhibitor. The suspension is stirred at RT until completely thawed, lysed an additional 2-4 min on a rotary blade homogenizer, and then centrifuged at 4200 g for 1 h. Following centrifugation, the supernatant is poured through cheese cloth and combined with a nickel chelating resin (Probond Resin™, Invitrogen) which is pre-equilibrated in a wash buffer containing 10 mM Tris (pH 7.6), 0.25 mM TCEP, 300 mM NaCl, 5% glycerol, and 20 mM imidazole. The mixture is agitated for 3 h in a cold room and then centrifuged at 900 g for 10 min. The resin is dispersed in wash buffer (50 mL), centrifuged for 10 min at 900 g, re-dispersed in a small amount of wash buffer (5 mL), and then pour into a disposable Poly-Prep chromatography column, through which wash buffer is passed by gravity until no protein is observed in coomassie buffer (about 120 mL of wash buffer). An elution buffer (30 mL) containing 10 mM HEPES (pH 7.4), 150 mM NaCl, 10% glycerol, 5 mM DTT, and 400 mM imidazole is used to elute the SYK protein from the resin. The eluate is concentrated (5 mL) and further purified on a Superdex 200 column (1.2 mL/min for 160 min, 10 mM HEPES (pH 7.4), 10 mM NaCl, 10 mM MgCl, 0.1 mM EDTA, and 0.25 mM TCEP). The chromatographed fractions are run on SDS-PAGE and the requisite fractions are pooled and concentrated. Final delivery buffer is 10 mM HEPES (pH 7.4), 10 mM Methione, 150 mM NaCl, 10% glycerol, 5 mM DTT.
SYK inhibition is determined using a black 384 well plate format in buffer containing 50 mM HEPES, 10 mM NaCl, 10 mM MgCl2, 0.2 mM EDTA, 0.01% EDA (Brij®35), 1 mM DTT, and 0.1 mg/ml BSA at pH 7.3. Each test compound is prepared in DMSO using 2-fold serial dilutions for 11 data points, which are added to the buffer so that each dilution contains 3% DMSO. To each well is added 2 μL of 3 μM SFAM-KKKKEEIYFFFG-NH2 (in buffer), 2 μL of diluted test compound (3% DMSO in buffer), and 2 μL of 2.4 nM SYK and 45 μM ATP (in buffer). The reaction mixture is incubated at RT for 60 min, and quenched by adding 50 mM Hepes, 30 mM EDTA, 0.1% Triton X-100 (pH 7.3). To quantify the fluorescent-labeled substrate and product following reaction, the test plate is loaded on a Caliper LC-3000, which measures percent of conversion by microfluidic-based separation. Corresponding IC50 values are calculated by non-linear curve fitting of the compound concentrations and percent of inhibition to the standard IC50 equation and reported as pIC50, i.e., −log(IC50), where IC50 is molar concentration.

Row | Structure (SMILES) | pIC50
1 | N[C@H]1CCCC[C@H]1Nc1nc(-c2ccns2)c2c(c1F)CNC2=O [Example 5, 6-((1R,2S)-2-Aminocyclohexylamino)-7-fluoro-4-(isothiazol-5-yl)-1H-pyrrolo[3,4-c]pyridin-3 (2H)-one] | 8.40
2 | Cc1ccn2ncc(-c3nc(N[C@@H]4CCOC[C@@H]4N)c(F)c4c3C(=O)NC4)c2c1 [Example 58, 6-(((3R,4R)-3-Aminotetrahydro-2H-pyran-4-yl)amino)-7-fluoro-4-(5-methylpyrazolo[1,5-a]pyridin-3-yl)-1H-pyrrolo[3,4-c]pyridin-3 (2H)-one] | 7.90
3 | N[C@H]1COCC[C@H]1Nc1nc(-c2cc3n(c2)CCC3=O)c2c(c1F)CNC2=O [Example 41, 6-((3R,4R)-3-Aminotetrahydro-2H-pyran-4-ylamino)-7-fluoro-4-(1-oxo-2,3-dihydro-1H-pyrrolizin-6-yl)-1H-pyrrolo[3,4-c]pyridin-3(2H)-one] | 7.70
4 | N[C@H]1COCC[C@H]1Nc1nc(-c2cc(F)cs2)c2c(c1F)CNC2=O [Example 27, 6-((3R,4R)-3-Aminotetrahydro-2H-pyran-4-ylamino)-7-fluoro-4-(4-fluorothiophene-2-yl)-1H-pyrrolo[3,4-c]pyridin-3(2H)-one] | 8.30
5 | Cc1ccn2ncc(-c3nc(N[C@@H]4CCCC[C@@H]4N)c(F)c4c3C(=O)NC4)c2c1 [Example 59, 6-(((1R,2S)-2-Aminocyclohexyl)amino)-7-fluoro-4-(5-methylpyrazolo[1,5-a]pyridin-3-yl)-1H-pyrrolo[3,4-c]pyridin-3(2H)-one] | 8.60
6 | CCn1cc(-c2nc(N[C@@H]3CCOC[C@@H]3N)c(F)c3c2C(=O)NC3)cn1 [Example 38, 6-((3R,4R)-3-Aminotetrahydro-2H-pyran-4-ylamino)-4-(1-ethyl-1H-pyrazol-4-yl)-7-fluoro-1H-pyrrolo[3,4-c]pyridin-3(2H)-one] | 7.70
7 | N[C@H]1COCC[C@H]1Nc1nc(CCc2ccc(Cl)cc2)c2c(c1F)CNC2=O [Example 49, 6-((3R,4R)-3-Aminotetrahydro-2H-pyran-4-ylamino)-4-(4-chlorophenethyl)-7-fluoro-1H-pyrrolo[3,4-c]pyridin-3(2H)-one] | 7.20
8 | N[C@H]1CCCC[C@H]1Nc1nc(/C=C/c2ccc(F)cc2)c2c(c1F)CNC2=O [Example 45, 6-((1R,2S)-2-Aminocyclohexylamino)-7-fluoro-4-(4-fluorostyryl)-1H-pyrrolo[3,4-c]pyridin-3(2H)-one] | 8.60
9 | CCc1cc(-c2nc(N[C@@H]3CCOC[C@@H]3N)c(F)c3c2C(=O)NC3)sn1 [Example 2, 6-((3R,4R)-3-Aminotetrahydro-2H-pyran-4-ylamino)-4-(3-ethylisothiazol-5-yl)-7-fluoro-1H-pyrrolo[3,4-c]pyridin-3(2H)-one] | 8.40
10 | N[C@H]1COCC[C@H]1Nc1nc(-c2cc(C3CC3)ns2)c2c(c1F)CNC2=O [Example 6, 6-((3R,4R)-3-Aminotetrahydro-2H-pyran-4-ylamino)-4-(3-cyclopropylisothiazol-5-yl)-7-fluoro-1H-pyrrolo[3,4-c]pyridin-3(2H)-one] | 9.10
11 | N[C@H]1CCCC[C@H]1Nc1nc(-c2cc3ncccc3s2)c2c(c1F)CNC2=O [Example 26, 6-((1R,2S)-2-Aminocyclohexylamino)-7-fluoro-4-(thieno[3,2-b]pyridin-2-yl)-1H-pyrrolo[3,4-c]pyridin-3(2H)-one] | 8.30
12 | N[C@H]1COCC[C@H]1Nc1nc(CCc2ccccc2)c2c(c1F)CNC2=O [Example 48] | 7.00
13 | N[C@H]1CCCC[C@H]1Nc1nc(/C=C/c2ccc(Cl)cc2)c2c(c1F)CNC2=O [Example 50, 6-((1R,2S)-2-Aminocyclohexylamino)-4-(4-chlorostyryl)-7-fluoro-1H-pyrrolo[3,4-c]pyridin-3(2H)-one] | 8.70

Compounds with a higher pIC50, results first:

Row | pIC50 | Structure (SMILES)
14 | 9.50 | N[C@H]1CCCC[C@H]1Nc1nc(-c2cc3cnccc3s2)c2c(c1F)CNC2=O [Example 18, 6-((1R,2S)-2-Aminocyclohexylamino)-7-fluoro-4-(thieno[3,2-c]pyridin-2-yl)-1H-pyrrolo[3,4-c]pyridin-3(2H)-one]
15 | 9.60 | N[C@H]1COCC[C@H]1Nc1nc(-c2cc3cccnc3s2)c2c(c1F)CNC2=O [Example 13, 6-((3R,4R)-3-Aminotetrahydro-2H-pyran-4-ylamino)-7-fluoro-4-(thieno[2,3-b]pyridin-2-yl)-1H-pyrrolo[3,4-c]pyridin-3(2H)-one]
16 | 9.60 | N[C@H]1COCC[C@H]1Nc1nc(-c2cc3cnccc3s2)c2c(c1F)CNC2=O [Example 17, 6-((3R,4R)-3-Aminotetrahydro-2H-pyran-4-ylamino)-7-fluoro-4-(thieno[3,2-c]pyridin-2-yl)-1H-pyrrolo[3,4-c]pyridin-3(2H)-one]
17 | 9.70 | Cc1nn(C)c2cc(-c3nc(N[C@@H]4CCOC[C@@H]4N)c(F)c4c3C(=O)NC4)sc12 [Example 32, 6-((3R,4R)-3-Aminotetrahydro-2H-pyran-4-ylamino)-4-(1,3-dimethyl-1H-thieno[3,2-c]pyrazol-5-yl)-7-fluoro-1H-pyrrolo[3,4-c]pyridin-3(2H)-one]
18 | 9.70 | N[C@H]1COCC[C@H]1Nc1nc(-c2cc3cc(F)ccc3s2)c2c(c1F)CNC2=O [Example 7, 6-((3R,4R)-3-Aminotetrahydro-2H-pyran-4-ylamino)-7-fluoro-4-(5-fluorobenzo[b]thiophen-2-yl)-1H-pyrrolo[3,4-c]pyridin-3(2H)-one]
19 | 9.80 | N[C@H]1CCCC[C@H]1Nc1nc(-c2cc3ccncc3s2)c2c(c1F)CNC2=O [Example 15, 6-((1R,2S)-2-Aminocyclohexylamino)-7-fluoro-4-(thieno[2,3-c]pyridin-2-yl)-1H-pyrrolo[3,4-c]pyridin-3(2H)-one]
20 | 9.90 | Cc1nn(C)c2cc(-c3nc(N[C@@H]4CCCC[C@@H]4N)c(F)c4c3C(=O)NC4)sc12 [Example 31, 6-((1R,2S)-2-Aminocyclohexylamino)-4-(1,3-dimethyl-1H-thieno[3,2-c]pyrazol-5-yl)-7-fluoro-1H-pyrrolo[3,4-c]pyridin-3(2H)-one]
21 | 9.90 | Cc1nn(C)c2sc(-c3nc(N[C@@H]4CCCC[C@@H]4N)c(F)c4c3C(=O)NC4)cc12 [Example 36, 6-((1R,2S)-2-Aminocyclohexylamino)-4-(1,3-dimethyl-1H-thieno[2,3-c]pyrazol-5-yl)-7-fluoro-1H-pyrrolo[3,4-c]pyridin-3(2H)-one]
22 | 9.90 | N#Cc1ccc2sc(-c3nc(N[C@@H]4CCCC[C@@H]4N)c(F)c4c3C(=O)NC4)cc2c1 [Example 22, 2-(6-((1R,2S)-2-Aminocyclohexylamino)-7-fluoro-3-oxo-2,3-dihydro-1H-pyrrolo[3,4-c]pyridin-4-yl)benzo[b]thiophene-5-carbonitrile]
23 | 10.00 | Cn1ncc2sc(-c3nc(N[C@@H]4CCOC[C@@H]4N)c(F)c4c3C(=O)NC4)cc21 [Example 30, 6-((3R,4R)-3-Aminotetrahydro-2H-pyran-4-ylamino)-7-fluoro-4-(1-methyl-1H-thieno[3,2-c]pyrazol-5-yl)-1H-pyrrolo[3,4-c]pyridin-3(2H)-one]
